How the values were obtained:
Assay type in all cases: in vivo
[1] = tested on: Setaria viridis (L.) Beauv. (Se); assay: Test for herbicidal effect by upland field soil treatment (Test Example 2), Se
Method in brief: (§1)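 Pre-emergence soil treatment: wettable powder diluted in water and sprayed on soil just sown with Ec and Se seeds, delivering 100 g active ingredient per 10 ares in 100 liters per 10 ares. Herbicidal effect was rated against a fixed scale 21 days later, after greenhouse growth.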

[2] = tested on: Polygonum lapathifolium L. subsp. nodosum (Pers.) Kitam. (Po); assay: Test for herbicidal effect to broadleaf weeds by upland field soil treatment (Test Example 6), Po; conditions: 25 g/10 a active ingredient, 30th day
Method: (§2) Test for herbicidal effect to broadleaf weeds by upland field soil treatment
(§3) An upland field soil was filled in a plastic pot of 80 cm^2. Seeds of Polygonum lapathifolium L. subsp. nodosum (Pers.) Kitam. (Po) and Chenopodium album L. (Ch) were sowed, followed by covering with the same soil. Wettable powders produced in accordance with the Formulation 1 were diluted with water and sprayed uniformly on the soil surface using a small sprayer, […] Then, breeding was made in a greenhouse. At the 30th day from the treatment, the herbicidal effect of each wettable powder was examined in accordance with the standard shown in Table 40.

[3] = tested on: Echinochloa crus-galli (L.) Beauv. var. crusgall (Ec); assay: Test for herbicidal effect by upland field soil treatment (Test Example 2), Ec
Method in brief: as §1

[4] = tested on: Chenopodium album L. (Ch); assay: Test for herbicidal effect to broadleaf weeds by upland field soil treatment (Test Example 6), Ch; conditions: 25 g/10 a active ingredient, 30th day
Method: as §2, §3

[5] = tested on: Echinochloa oryzicola Vasing. (Eo); assay: Test for herbicidal effect by paddy field soil treatment (Test Example 1); conditions: application amount (active ingredient) 100 g/10 a, examined at the 21st day from the treatment, index per Table 40
Method in brief: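 Scored on a standard scale at day 21 in the greenhouse: herbicidal effect of wettable powder applied to flooded water (3 cm depth) at 100 g a.i./10 ares, one day after sowing Eo into puddled paddy soil.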

[6] = tested on: Echinochloa crus-galli (L.) Beauv. var. crusgalli (Ec); assay: Test for herbicidal effect by upland foliage treatment (Test Example 3); conditions: 100 g/10 a active ingredient, examined at 14th day
Method in brief: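 Scored 14 days post-spray against a graded standard: greenhouse-grown Ec, 2 weeks old in upland soil, received whole-foliage application of diluted wettable powder (100 g active ingredient per 10 ares, spray volume 100 L per 10 ares).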

[7] = tested on: Monochoria vaginalis Presl (Mo); assay: Test for herbicidal effect during breeding period by paddy field water treatment (Test Example 5), Mo; conditions: paddy field water treatment at 1-leaf stage, 25 g/10 a active ingredient, 30th day
Method: (§4) [table] <Test Example 5> Test For Herbicidal Effect During Breeding Period By Paddy Field Water Treatment A paddy field soil was filled in a plastic pot of 100 cm^2 and subjected to puddling. Seeds of Monochoria vaginalis Presl (Mo) and Scirpus juncoides Roxb. subsp. juncoides Roxb. (Sc) were sowed; water was filled in a depth of 3 cm; and breeding was made. When Mo reached a 1-leaf stage and Sc reached a 2-leaf stage, wettable powders produced in accordance with the Formulation 1 were diluted with water and dropped on the water surface. […] Then, breeding was made in a greenhouse. At the 30th day from the treatment, the herbicidal effect of each wettable powder was examined in accordance with the standard shown in Table 40.

[8] = tested on: Scirpus juncoides Roxb. subsp. juncoides Roxb. (Sc); assay: Test for herbicidal effect during breeding period by paddy field water treatment (Test Example 5), Sc; conditions: paddy field water treatment at 2-leaf stage, 25 g/10 a active ingredient, 30th day
Method: as §4

[9] = application amount (active ingredient) 100 g/10 a, examined at the 21st day from the treatment, index per Table 40
[10] = 100 g/10 a active ingredient, examined at 21st day

| Compound | Herbicidal effect to Se [1, 9] | Herbicidal effect to Po [2] | Herbicidal effect to Ec [3, 9] | Herbicidal effect to Ch [4] | Herbicidal effect to Eo [5] | Herbicidal effect to Ec [6] | Herbicidal effect to Se [1, 10] | Herbicidal effect to Ec [3, 10] | Herbicidal effect to Mo [7] | Herbicidal effect to Sc [8] |
| --- | --- | --- | --- | --- | --- | --- | --- | --- | --- | --- |
| CCCOc1ccccc1CS(=O)(=O)C1=NOC(C)(C)C1 [Compound 1-46] | 5 (A herbicidal effect or phytotoxicity of 90% or more) | 5 (A herbicidal effect or phytotoxicity of 90% or more) | 5 (A herbicidal effect or phytotoxicity of 90% or more) | 4 (A herbicidal effect or phytotoxicity of 70% to less than 90%) | 5 (A herbicidal effect or phytotoxicity of 90% or more) | 4 (A herbicidal effect or phytotoxicity of 70% to less than 90%) |  |  |  |  |
| CC1(C)CC(S(=O)(=O)Cc2c(F)ccc(F)c2F)=NO1 [Compound 1-501] |  | 5 (A herbicidal effect or phytotoxicity of 90% or more) |  | 5 (A herbicidal effect or phytotoxicity of 90% or more) | 5 (A herbicidal effect or phytotoxicity of 90% or more) | 5 (A herbicidal effect or phytotoxicity of 90% or more) | 5 (A herbicidal effect or phytotoxicity of 90% or more) | 5 (A herbicidal effect or phytotoxicity of 90% or more) |  |  |
| Cc1cc(C)c(C)c(CS(=O)(=O)C2=NOC(C)(C)C2)c1C [Compound 1-547] |  |  |  |  | 5 (A herbicidal effect or phytotoxicity of 90% or more) | 5 (A herbicidal effect or phytotoxicity of 90% or more) | 5 (A herbicidal effect or phytotoxicity of 90% or more) | 5 (A herbicidal effect or phytotoxicity of 90% or more) | 5 (A herbicidal effect or phytotoxicity of 90% or more) | 5 (A herbicidal effect or phytotoxicity of 90% or more) |
| O=S(=O)(Cc1c(F)cccc1F)C1=NOC2(CCC2)C1 [Compound 1-382] | 5 (A herbicidal effect or phytotoxicity of 90% or more) |  | 5 (A herbicidal effect or phytotoxicity of 90% or more) |  | 5 (A herbicidal effect or phytotoxicity of 90% or more) |  |  |  | 5 (A herbicidal effect or phytotoxicity of 90% or more) | 4 (A herbicidal effect or phytotoxicity of 70% to less than 90%) |
| CCc1ccccc1CS(=O)(=O)C1=NOC(C)(CCl)C1 (stereo not drawn) [Comparative compound 1, reference compound] |  |  |  |  |  |  |  |  | 1 (A herbicidal effect or phytotoxicity of 10% to less than 30%) | 1 (A herbicidal effect or phytotoxicity of 10% to less than 30%) |
| CCOc1cccc(F)c1CS(=O)(=O)C1=NOC(C)(C)C1 [Compound 1-526] |  | 5 (A herbicidal effect or phytotoxicity of 90% or more) |  | 5 (A herbicidal effect or phytotoxicity of 90% or more) | 5 (A herbicidal effect or phytotoxicity of 90% or more) | 5 (A herbicidal effect or phytotoxicity of 90% or more) | 5 (A herbicidal effect or phytotoxicity of 90% or more) | 5 (A herbicidal effect or phytotoxicity of 90% or more) |  |  |
| Cc1cc(C)cc(CS(=O)(=O)C2=NOC(C)(C)C2)c1 [Compound 1-523] |  | 5 (A herbicidal effect or phytotoxicity of 90% or more) |  | 5 (A herbicidal effect or phytotoxicity of 90% or more) | 5 (A herbicidal effect or phytotoxicity of 90% or more) | 5 (A herbicidal effect or phytotoxicity of 90% or more) | 5 (A herbicidal effect or phytotoxicity of 90% or more) | 5 (A herbicidal effect or phytotoxicity of 90% or more) |  |  |
| CC1(C)CC(S(=O)(=O)Cc2c(F)cccc2OC(F)F)=NO1 [Compound 1-573] |  | 5 (A herbicidal effect or phytotoxicity of 90% or more) |  | 5 (A herbicidal effect or phytotoxicity of 90% or more) | 5 (A herbicidal effect or phytotoxicity of 90% or more) | 5 (A herbicidal effect or phytotoxicity of 90% or more) | 5 (A herbicidal effect or phytotoxicity of 90% or more) | 5 (A herbicidal effect or phytotoxicity of 90% or more) |  |  |
| CC1(C)CC(S(=O)(=O)Cc2c(F)cccc2[N+](=O)[O-])=NO1 [Compound 1-499] |  | 5 (A herbicidal effect or phytotoxicity of 90% or more) |  | 4 (A herbicidal effect or phytotoxicity of 70% to less than 90%) | 5 (A herbicidal effect or phytotoxicity of 90% or more) | 5 (A herbicidal effect or phytotoxicity of 90% or more) | 5 (A herbicidal effect or phytotoxicity of 90% or more) | 5 (A herbicidal effect or phytotoxicity of 90% or more) |  |  |
| CC1(CCl)CC(S(=O)(=O)Cc2ccccc2F)=NO1 (stereo not drawn) [Comparative compound 2, reference compound] |  |  |  |  |  |  |  |  | 1 (A herbicidal effect or phytotoxicity of 10% to less than 30%) | 1 (A herbicidal effect or phytotoxicity of 10% to less than 30%) |
| CC1(C)CC(S(=O)(=O)Cc2cc(F)ccc2F)=NO1 [Compound 1-498] |  | 5 (A herbicidal effect or phytotoxicity of 90% or more) |  | 5 (A herbicidal effect or phytotoxicity of 90% or more) | 5 (A herbicidal effect or phytotoxicity of 90% or more) | 5 (A herbicidal effect or phytotoxicity of 90% or more) | 5 (A herbicidal effect or phytotoxicity of 90% or more) | 5 (A herbicidal effect or phytotoxicity of 90% or more) |  |  |
| CC1CC(S(=O)(=O)Cc2c(F)cccc2F)=NO1 (stereo not drawn) [Compound 1-532] |  | 5 (A herbicidal effect or phytotoxicity of 90% or more) |  | 5 (A herbicidal effect or phytotoxicity of 90% or more) | 5 (A herbicidal effect or phytotoxicity of 90% or more) | 4 (A herbicidal effect or phytotoxicity of 70% to less than 90%) | 4 (A herbicidal effect or phytotoxicity of 70% to less than 90%) | 5 (A herbicidal effect or phytotoxicity of 90% or more) |  |  |
| COc1cccc(F)c1CS(=O)(=O)C1=NOC(C)(C)C1 [Compound 1-534] |  | 5 (A herbicidal effect or phytotoxicity of 90% or more) |  | 5 (A herbicidal effect or phytotoxicity of 90% or more) | 5 (A herbicidal effect or phytotoxicity of 90% or more) | 5 (A herbicidal effect or phytotoxicity of 90% or more) | 5 (A herbicidal effect or phytotoxicity of 90% or more) | 5 (A herbicidal effect or phytotoxicity of 90% or more) |  |  |
| CC1(C)CC(S(=O)(=O)Cc2c(F)cc(F)cc2F)=NO1 [Compound 1-500] |  | 5 (A herbicidal effect or phytotoxicity of 90% or more) |  | 4 (A herbicidal effect or phytotoxicity of 70% to less than 90%) | 5 (A herbicidal effect or phytotoxicity of 90% or more) | 5 (A herbicidal effect or phytotoxicity of 90% or more) | 5 (A herbicidal effect or phytotoxicity of 90% or more) | 5 (A herbicidal effect or phytotoxicity of 90% or more) |  |  |
| COC(=O)c1cccc(F)c1CS(=O)(=O)C1=NOC(C)(C)C1 [Compound 1-555] |  | 5 (A herbicidal effect or phytotoxicity of 90% or more) |  | 4 (A herbicidal effect or phytotoxicity of 70% to less than 90%) | 5 (A herbicidal effect or phytotoxicity of 90% or more) | 4 (A herbicidal effect or phytotoxicity of 70% to less than 90%) | 5 (A herbicidal effect or phytotoxicity of 90% or more) | 5 (A herbicidal effect or phytotoxicity of 90% or more) |  |  |
